Results reported in US5428041A, “Antihypercholesterolemic bis-trifluoromethyl-substituted imidazolines and derivatives thereof” (The Du Pont Merck Pharmaceutical Company, priority 1992, dated 1995).
Where a name gives a salt, the structure may show the parent alone.

Columns and labels:
[1] = Water solubility of polymorphs; type: physicochemical; conditions: compared with the higher melting polymorph
[2] = Oral bioavailability of polymorphs; type: in vivo; conditions: compared to the higher melting form
ACAT = test: Systemic ACAT inhibitory activity; type: in vivo; conditions: oral, compared to the higher melting form
[3] = molecular target: T1, Acyl-CoA: Cholesterol Acyltransferase (ACAT) (Rattus norvegicus, UniProt Q7TQM4); test: Inhibition of Acyl-CoA:Cholesterol Acyltransferase (ACAT) in hepatic microsomes; type: biochemical, Sprague Dawley rat; conditions: rat hepatic microsomes, 14C-oleoyl-CoA, 37° C., pH 7.4; read-out: In Vitro ACAT IC50
T1 construct: centrifuged at 105,000×g for 1 hour to pellet the microsomes; from tissue; host or cells: liver microsomes of fasted male Sprague Dawley rats
T1 sequence (Q7TQM4 1-524): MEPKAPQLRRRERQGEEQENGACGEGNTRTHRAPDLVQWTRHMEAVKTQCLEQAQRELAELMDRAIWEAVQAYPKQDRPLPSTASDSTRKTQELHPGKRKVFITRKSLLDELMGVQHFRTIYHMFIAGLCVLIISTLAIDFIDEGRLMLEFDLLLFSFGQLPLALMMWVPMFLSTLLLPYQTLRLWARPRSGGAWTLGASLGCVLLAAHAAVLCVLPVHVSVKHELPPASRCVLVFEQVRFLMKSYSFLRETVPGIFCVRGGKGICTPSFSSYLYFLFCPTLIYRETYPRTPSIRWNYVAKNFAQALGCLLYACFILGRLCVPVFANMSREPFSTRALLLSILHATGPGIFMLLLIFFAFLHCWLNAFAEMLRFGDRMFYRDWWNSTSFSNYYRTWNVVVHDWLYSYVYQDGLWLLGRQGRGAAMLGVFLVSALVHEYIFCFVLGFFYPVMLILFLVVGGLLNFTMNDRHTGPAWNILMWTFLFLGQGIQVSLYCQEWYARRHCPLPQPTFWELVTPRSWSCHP
Experimental: A. Assay of the Inhibition of Acyl-CoA: Cholesterol Acyltransferase (ACAT) in Hepatic Microsomes
The ability of the compounds to inhibit ACAT, the enzyme responsible for the intracellular synthesis of cholesteryl esters, was tested as follows. Male Sprague Dawley rates weighing 150-300 g were fed rat chow ad libitum. The animals were fasted for twenty-four hours prior to being sacrificed by decapitation. The livers were perfused in situ with 50 ml of cold 0.25M sucrose, excised and homogenized in three volumes of 0.1M phosphate buffer, pH 7.4, that contained 0.5 mM EDTA (ethylenediaminetetraacetic acid), 1.0 mM glutathione, 0.25M sucrose and 20 mM leupeptin. Microsomes were obtained by differential centrifugation; the supernatant from an initial spin at 15,000×g for 15 minutes was centrifuged at 105,000×g for 1 hour to pellet the microsomes. The microsomes were suspended in homogenization buffer, reisolated by centrifugation, and stored at -70° C. Microsomes were used within one month of preparation.
The control assay in a final volume of 200 μl consisted of 200 μg of microsomal protein, 75 μM ^14 C-oleoyl-CoA (10,000 dpm/nmol) in 0.1M phosphate, pH 7.4, that contained 1 mM glutathione. Compounds were added in 5-10 μl of DMSO (dimethyl sulfoxide or ethanol) and additional controls were run with DMSO or ethanol only. All components, except the oleoyl-CoA, were preincubated for 15 min. at 37° C. prior to the initiation of the reaction by the addition of oleoyl CoA. The assay was terminated after 10 min by the addition of 4 ml of chloroform:methanol (2:1, v/v). 20,000 dpm of ^3 H-cholesteryl oleate and 10 μg of unlabeled cholesteryl oleate and oleic acid were added as an internal standard and carrier, respectively. After allowing 10 min. for lipid extraction, 0.8 ml of deionized water was added to separate the solution into two phases. The lower chloroform phase was collected, dried under nitrogen and resuspended in 100 μl of chloroform. The sample containing the neutral lipids was spotted onto a Gelman ITLC-SA polysilicic acid gel-impregnated sheet, which was developed using a hexane: diethyl ether: acetic acid (170:30:1 v/v/v) mobile phase. The lipids were visualized by their interaction with iodine vapor and the cholesteryl ester spot was scraped into a scintillation vial and counted. The specific activity of ACAT in the control incubation averaged 260 pmol/min/mg microsomal protein. The inhibition of ACAT activity by the compounds is shown in Table 7; the data are expressed as the concentration at which ACAT activity is inhibited by 50% (IC50).

[4] = test system: murine macrophage-like cell line J744.A1; test: Inhibition of cholesterol esterification in mammalian cells (macrophage); type: cell-based; conditions: Mus musculus; J744.A1 macrophage-like cells loaded with ac-LDL, 14C oleic acid
Experimental: B. Assay of the Inhibition of Cholesterol Esterification in Mammalian Cells The esterification of cholesterol was determined in the murine macrophage-like cell line J744.A1. Cells were seeded in 35 mm wells at a density of 300,000 cells per well in 2 mls of Dulbecco's Modified Eagle Medium (DMEM) supplemented with 10% fetal bovine serum (FBS). Cells were incubated at 37° C. in an atmosphere of 5% CO2 and 93% humidity. After 24 hours the media was changed to 0.68 mls 10% FBS-DMEM containing 34 μg of acetylated human low density lipoprotein (ac-LDL) to increase the intracellular concentration of cholesterol and promote esterification. At 41 hours, various inhibitors were added to the cells in DMSO (10 μl/ml maximum). At 43 hours, the cells were pulsed with 0.1 mM ^14 C oleic acid (10,000 dpm/nmol) complexed with BSA (bovine serum albumin) to follow cholesterol ester formation. The experiment was terminated at 45 hours by washing the monolayers 3 times with 3 ml of Tris-buffered saline at 4° C. The lipids were extracted by incubating the monolayers with 1.5 ml of hexane: isopropanol (3:2, v/v) for 30 min. under gentle agitation. During this period, 10,000 dpm ^3 H-cholesteryl linoleate and 10 μg of cholesteryl oleate were added as an internal standard and carrier respectively. The organic solvent was remoted and the cells were washed with an additional 1.0 ml of hexane: isopropanol which was combined with the original extract. The cells were allowed to dry overnight, digested with 1.5 ml of 0.2 N sodium hydroxide for 1 hour and an aliquot of the solubilized protein used for protein determination using the Lowry method. […] Individual lipids were visualized with iodine and the cholesteryl ester spot cut out and transferred to scintillation vials to determine the amount of radioactivity.

Row | SMILES | water solubility relative to the 181°-183° C. melting polymorph [1] [fold] | oral bioavailability [2] | systemic ACAT inhibitory activity (ACAT) | IC50 [3] [µM] | IC50 [4] [µM]
1 | CN(C(=O)c1ccc(C#N)cc1)C1N(C)C(c2ccc(C#N)cc2)=NC1(C(F)(F)F)C(F)(F)F (stereo not drawn) [132°-134° melting polymorph, N-[4,4-bis[trifluoromethyl)-4,5-dihydro-1-methyl-2-[4-cyanophenyl]-1H-imidazol-5-yl]-N-methyl-4-cyanobenzamide] | 3 | greater oral bioavailability | improved systemic ACAT inhibitory activity | – | –
2 | CN1C(c2ccc(F)cc2)=NC(C(F)(F)F)(C(F)(F)F)C1=NC(=O)c1ccc(F)cc1 [Example 2, N-[4,4-bis(trifluoromethyl)-2-(4-fluorophenyl)-4,5-dihydro-1-methyl-1H-imidazol-5-ylidene]-4-fluoro-benzamide] | – | – | – | 20 | > 100
3 | CCCCCCC(=O)N(C)C1N(C)C(c2ccc(N3CCCCC3)cc2)=NC1(C(F)(F)F)C(F)(F)F (stereo not drawn) [Example 33, N-[4,4-bis(trifluoromethyl)-4,5-dihydro-1-methyl-2-[4-(1-piperidinyl)phenyl]-1H-imidazol-5-yl]-N-methylheptanamide, hydrochloride] | – | – | – | 10 | 13
4 | CC(C)c1ccc(NC(=O)N(C)C2N(C)C(c3ccc(F)cc3)=NC2(C(F)(F)F)C(F)(F)F)cc1 (stereo not drawn) [Example 27, N-[4,4-bis(trifluoromethyl)-2-(4-fluorophenyl)-4,5-dihydro-1-methyl-1H-imidazol-5-yl]-N'-4-isopropylphenyl-N-methylurea] | – | – | – | 3 | 16
5 | CN(C(=O)c1ccc(C(C)(C)C)cc1)C1N(C)C(c2ccc(F)cc2)=NC1(C(F)(F)F)C(F)(F)F (stereo not drawn) [Example 13, N-[4,4-bis(trifluoromethyl)-2-(4-fluorophenyl)-4,5-dihydro-1-methyl-1H-imidazol-5-yl]-4-(1,1-dimethylethyl)-N-methylbenzamide] | – | – | – | 4 | 18
6 | CN(C(=O)c1ccc(F)cc1)C1N(C)C(c2ccc(F)cc2)=NC1(C(F)(F)F)C(F)(F)F (stereo not drawn) [Example 10A, N-[4,4-bis(trifluoromethyl)2-(4-fluorophenyl)-4,5-dihydro-1-methyl-1H-imidazol-5-yl]-4-fluorophenyl-N-methylbenzamide] | – | – | – | 22 | 105
7 | CN1C(c2ccc(F)cc2)=NC(C(F)(F)F)(C(F)(F)F)C1NC(=O)c1ccc(N2CCCCC2)cc1 (stereo not drawn) [Example 31, N-[4,4-bis(trifluoromethyl)-2-(4-fluorophenyl)-4,5-dihydro-1-methyl-1H-imidazol-5-yl]-4-(1-piperidinyl) benzamide] | – | – | – | 10 | 13
